From patent publication US11083725B2 (priority 2014, dated 2021)

System: NHBE cells
Assay: Biolog metabolic array: substrate use by NHBE cells with or without CA09 infection
Assay type: cell-based, human
Details: for Substrate use, 590 nm absorbance normalized to zero hour, 0 hr: Biolog PMM2, 0 hr; for Substrate use, 590 nm absorbance normalized to zero hour, 1 hr: Biolog PMM2, 1 hr; for Substrate use, 590 nm absorbance normalized to zero hour, 5 hr: Biolog PMM2, 5 hr; for Substrate use, 590 nm absorbance normalized to zero hour, 7 hr: Biolog PMM2, 7 hr
[1] = Control (uninfected) NHBE cells
[2] = Virus (CA09-infected, MOI 1) NHBE cells
[3] = Virus: CA09-infected NHBE cells, MOI 1, Biolog PMM2
[4] = Virus (CA09-infected NHBE cells, MOI 1)

SMILES	590 nm absorbance normalized to zero hour (substrate use), 1 hr [1]	590 nm absorbance normalized to zero hour (substrate use), 2 hr [1]	590 nm absorbance normalized to zero hour (substrate use), 3 hr [1]	590 nm absorbance normalized to zero hour (substrate use), 4 hr [1]	590 nm absorbance normalized to zero hour (substrate use), 6 hr [1]	590 nm absorbance normalized to zero hour (substrate use), 8 hr [1]	590 nm absorbance normalized to zero hour (substrate use), 9 hr [1]	590 nm absorbance normalized to zero hour (substrate use), 10 hr [1]	590 nm absorbance normalized to zero hour (substrate use), 11 hr [1]	Substrate use, 590 nm absorbance normalized to zero hour, 1 hr [1]	Substrate use, 590 nm absorbance normalized to zero hour, 5 hr [1]	Substrate use, 590 nm absorbance normalized to zero hour, 7 hr [1]	590 nm absorbance normalized to zero hour (substrate use), 1 hr [3]	590 nm absorbance normalized to zero hour (substrate use), 2 hr [3]	590 nm absorbance normalized to zero hour (substrate use), 3 hr [3]	590 nm absorbance normalized to zero hour (substrate use), 4 hr [3]	590 nm absorbance normalized to zero hour (substrate use), 5 hr [3]	590 nm absorbance normalized to zero hour (substrate use), 6 hr [3]	590 nm absorbance normalized to zero hour (substrate use), 7 hr [3]	590 nm absorbance normalized to zero hour (substrate use), 8 hr [3]	further results
OC[C@H]1O[C@@H](O[C@H]2[C@H](O)[C@@H](O)[C@H](O)O[C@@H]2CO)[C@H](O)[C@@H](O)[C@@H]1O [D-Cellobiose]	1.74	2.30	2.69	2.91	4.52	4.59	5.13	5.20	5.51	1.74	3.55	4.26	1.58	2.09	2.38	2.49	2.81	3.00	3.14	3.31	590 nm absorbance normalized to zero hour (substrate use), 0 hr [1]: 1.00; Substrate use, 590 nm absorbance normalized to zero hour, 0 hr [1]: 1.00; 590 nm absorbance normalized to zero hour (substrate use), 0 hr [2]: 1.00; 590 nm absorbance normalized to zero hour (substrate use), 1 hr [2]: 1.58; 590 nm absorbance normalized to zero hour (substrate use), 2 hr [2]: 2.09; 590 nm absorbance normalized to zero hour (substrate use), 3 hr [2]: 2.38; 590 nm absorbance normalized to zero hour (substrate use), 4 hr [2]: 2.49; 590 nm absorbance normalized to zero hour (substrate use), 5 hr [2]: 2.81; 590 nm absorbance normalized to zero hour (substrate use), 6 hr [2]: 3.00; 590 nm absorbance normalized to zero hour (substrate use), 7 hr [2]: 3.14; 590 nm absorbance normalized to zero hour (substrate use), 8 hr [2]: 3.31; 590 nm absorbance normalized to zero hour (substrate use), 9 hr [2]: 3.54; 590 nm absorbance normalized to zero hour (substrate use), 10 hr [2]: 3.69; 590 nm absorbance normalized to zero hour (substrate use), 11 hr [2]: 4.06; 590 nm absorbance normalized to zero hour (substrate use), 0 hr [3]: 1.00; 590 nm absorbance normalized to zero hour (substrate use), 9 hr [3]: 3.54; 590 nm absorbance normalized to zero hour (substrate use), 10 hr [3]: 3.69; 590 nm absorbance normalized to zero hour (substrate use), 11 hr [3]: 4.06
O=C(CO)[C@@H](O)[C@H](O)[C@H](O)COP(=O)(O)O [D-Fructose-6-Phosphate]	1.03	0.90	0.59	0.97	0.23	0.49	0.97	0.92	0.64	1.03	0.54	1.00	0.59	0.75	0.87	0.94	1.11	1.18	1.27	1.35	590 nm absorbance normalized to zero hour (substrate use), 1 hr [2]: 0.59; 590 nm absorbance normalized to zero hour (substrate use), 2 hr [2]: 0.75; 590 nm absorbance normalized to zero hour (substrate use), 3 hr [2]: 0.87; 590 nm absorbance normalized to zero hour (substrate use), 4 hr [2]: 0.94; 590 nm absorbance normalized to zero hour (substrate use), 5 hr [2]: 1.11; 590 nm absorbance normalized to zero hour (substrate use), 6 hr [2]: 1.18; 590 nm absorbance normalized to zero hour (substrate use), 7 hr [2]: 1.27; 590 nm absorbance normalized to zero hour (substrate use), 8 hr [2]: 1.35; 590 nm absorbance normalized to zero hour (substrate use), 9 hr [2]: 1.49; 590 nm absorbance normalized to zero hour (substrate use), 10 hr [2]: 1.55; 590 nm absorbance normalized to zero hour (substrate use), 11 hr [2]: 1.65; 590 nm absorbance normalized to zero hour (substrate use), 9 hr [3]: 1.49; 590 nm absorbance normalized to zero hour (substrate use), 10 hr [3]: 1.55; 590 nm absorbance normalized to zero hour (substrate use), 11 hr [3]: 1.65
O=C(CO)[C@@H](O)[C@H](O)[C@H](O)CO [D-Fructose]	2.31	2.22	1.77	2.00	1.51	3.38	4.01	3.99	4.24	2.31	2.59	3.18	0.44	0.58	0.71	0.79	1.00	1.09	1.17	1.26	590 nm absorbance normalized to zero hour (substrate use), 1 hr [4]: 0.44; 590 nm absorbance normalized to zero hour (substrate use), 2 hr [4]: 0.58; 590 nm absorbance normalized to zero hour (substrate use), 3 hr [4]: 0.71; 590 nm absorbance normalized to zero hour (substrate use), 4 hr [4]: 0.79; 590 nm absorbance normalized to zero hour (substrate use), 5 hr [4]: 1.00; 590 nm absorbance normalized to zero hour (substrate use), 6 hr [4]: 1.09; 590 nm absorbance normalized to zero hour (substrate use), 7 hr [4]: 1.17; 590 nm absorbance normalized to zero hour (substrate use), 8 hr [4]: 1.26; 590 nm absorbance normalized to zero hour (substrate use), 9 hr [4]: 1.43; 590 nm absorbance normalized to zero hour (substrate use), 10 hr [4]: 1.52; 590 nm absorbance normalized to zero hour (substrate use), 11 hr [4]: 1.70; 590 nm absorbance normalized to zero hour (substrate use), 9 hr [3]: 1.43; 590 nm absorbance normalized to zero hour (substrate use), 10 hr [3]: 1.52; 590 nm absorbance normalized to zero hour (substrate use), 11 hr [3]: 1.70
C[C@@H](O)[C@H](O)[C@H](O)[C@@H](O)C=O [D-Fucose]	1.61	1.96	2.02	2.15	2.11	2.49	2.69	2.78	2.97	1.61	2.65	2.19	0.66	0.33	0.67	0.64	0.62	0.65	0.65	0.60	590 nm absorbance normalized to zero hour (substrate use), 0 hr [1]: 1.00; Substrate use, 590 nm absorbance normalized to zero hour, 0 hr [1]: 1.00; 590 nm absorbance normalized to zero hour (substrate use), 0 hr [4]: 1.00; 590 nm absorbance normalized to zero hour (substrate use), 1 hr [4]: 0.66; 590 nm absorbance normalized to zero hour (substrate use), 2 hr [4]: 0.33; 590 nm absorbance normalized to zero hour (substrate use), 3 hr [4]: 0.67; 590 nm absorbance normalized to zero hour (substrate use), 4 hr [4]: 0.64; 590 nm absorbance normalized to zero hour (substrate use), 5 hr [4]: 0.62; 590 nm absorbance normalized to zero hour (substrate use), 6 hr [4]: 0.65; 590 nm absorbance normalized to zero hour (substrate use), 7 hr [4]: 0.65; 590 nm absorbance normalized to zero hour (substrate use), 8 hr [4]: 0.60; 590 nm absorbance normalized to zero hour (substrate use), 9 hr [4]: 0.52; 590 nm absorbance normalized to zero hour (substrate use), 10 hr [4]: 0.57; 590 nm absorbance normalized to zero hour (substrate use), 11 hr [4]: 0.61; 590 nm absorbance normalized to zero hour (substrate use), 0 hr [3]: 1.00; 590 nm absorbance normalized to zero hour (substrate use), 9 hr [3]: 0.52; 590 nm absorbance normalized to zero hour (substrate use), 10 hr [3]: 0.57; 590 nm absorbance normalized to zero hour (substrate use), 11 hr [3]: 0.61
